According to the supplement of paper PMC10627819:

Key:
S. aureus Newman = experiment: Bliss interaction score (quartile over a dose matrix) (fitness difference); higher = more antagonism (negative = synergy)
How it was run: (§1)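 Quartiles summarise the Bliss score over technical, biological and donor/recipient replicates, where the score is observed minus expected fitness under a product model. Expected fitness uses single-drug values inferred from combination data. Fitness is OD595 at entry into stationary phase over the plate's robust no-drug mean, capped at 1.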

B. subtilis 168 [1] = experiment: as above
How it was run: as §1

S. aureus DSM 20231 = experiment: as above
How it was run: as §1

S. pneumoniae D39V [2] = experiment: as above
How it was run: as §1

B. subtilis 168 [3] = experiment: fitness (endpoint OD595 vs no drug) (fraction); higher = more growth
How it was run: (§2)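 Plates with 384 wells were inoculated at OD595 0.01 using 30 µl of TSB, LB Lennox or CY, or 55 µl for S. pneumoniae. Incubation was at 37 °C, with OD595 measured every 30 min for 14 h. Fitness is the stationary-phase transition optical density over the robust mean of no-drug control wells, after first-reading background subtraction; it is capped at 1.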

S. pneumoniae D39V [4] = experiment: as above
How it was run: as §2
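Wherever Bliss interaction score (quartile over a dose matrix) is given: first quartile when negative (synergy) and third quartile when positive (antagonism).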

CCC[C@@H]1C[C@@H](C(=O)N[C@@H]([C@H]2O[C@H](SC)[C@H](O)[C@@H](O)[C@H]2O)[C@@H](C)O)N(C)C1 [Lincomycin] + CN[C@@H]1[C@H](O[C@H]2[C@H](O[C@H]3[C@H](O)[C@@H](O)[C@H](N=C(N)N)[C@@H](O)[C@@H]3N=C(N)N)O[C@@H](C)[C@]2(O)C=O)O[C@@H](CO)[C@H](O)[C@H]1O [Streptomycin]
Conditions	Bliss interaction score
B. subtilis 168 [1]	0.105
S. aureus DSM 20231	-0.107
S. aureus Newman	0.0761
S. pneumoniae D39V [2]	-0.129

fitness
Conditions	first compound 0.1 µg/mL	first compound 0.2 µg/mL	first compound 0.215 µg/mL	first compound 0.4 µg/mL	first compound 0.43 µg/mL	first compound 0.8 µg/mL	first compound 0.86 µg/mL
B. subtilis 168 [3], partner 2 µg/mL	0.935	0.913	–	0.9	–	–	–
B. subtilis 168 [3], partner 8 µg/mL	–	–	–	0.0442	–	–	–
S. pneumoniae D39V [4], partner 2 µg/mL	–	–	0.768	–	0.681	–	0.231
S. pneumoniae D39V [4], partner 4 µg/mL	–	0.699	0.784	0.627	0.686	0.305	0.284
S. pneumoniae D39V [4], partner 8 µg/mL	–	0.588	0.796	0.539	0.667	0.203	0.195

fitness, S. pneumoniae D39V [4], one replicate
Conditions	first compound 0.2 µg/mL	first compound 0.4 µg/mL	first compound 0.8 µg/mL
partner 2 µg/mL	0.759	0.7	0.421
partner 16 µg/mL	0.509	0.369	0.0724
